Reference: patent US10844351B2, “Method for producing otic progenitors” (priority 2015, dated 2020)

Legend:
Assay type in all cases: cell-based, human
H14S9 hES cell line [1] = experiment: QPCR of otic marker gene expression after 12 day otic differentiation protocol
Description: The effect of the Wnt inhibitors was initially explored in the backdrop of a known differentiation protocol, which includes FGF 3 and FGF 10 supplementation from the outset. Experiments were carried out to determine the effect of canonical Wnt inhibition on the differentiation of otic progenitors in FGF medium (standard concentration of 50 ng/ml for each FGF 3 and FGF 10) and obtain an optimal working concentration. IWR-1-endo was present from day 0 of differentiation (day 0 refers to the initial seeding of the hES cells into differentiation conditions) and were maintained throughout the 12 day protocol. At the end of the differentiation protocol, RNA was extracted and PAX2, PAX8 and FOXG1 gene expression was quantified by real time PCR (QPCR) using SYBR Green (Sigma Aldrich). Delta Cts were calculated against the large ribosomal protein RPLPO housekeeping gene, and Delta Ct values were compared against the levels expressed by cells differentiated in the control DFNB medium (Livak and Schmittgen, 2001). FIG. 1 compares the dose responses of IWR-1-endo and the effect on the gene expression of PAX2, PAX8 and FOXG1 in the H14S9 hES cell line. Dimethyl sulfoxide (DMSO) was the vehicle for all small molecule compounds. A vehicle-only control was added to FGF medium to ascertain the effects of DMSO. […] This provided confidence that the Wnt inhibitor compound was exerting an effect on gene expression, and not the carrier vehicle. […] The optimal concentration of IWR-1-endo agrees with published findings in human stem cell studies (Chen et al., 2009, Hudson et al., 2012).
Further investigating the timing of canonical Wnt inhibition it was important to address whether inhibition was required throughout the whole 12-day differentiation protocol. Experiments were set up to inhibit canonical Wnt signalling for different lengths of time. In combination with FGF medium, Wnt inhibition took place from day 0 to day 4, day 0 to day 6, or day 0 to day 8. […] At the end of day 12, gene expression of PAX2, PAX8 and FOXG1 was quantified relative to the DFNB baseline condition, and is shown in FIG. 6. […]

H14S9 hES cell line [2] = experiment: QPCR of ectoderm, mesoderm and endoderm lineage marker gene expression after 12 day otic differentiation
Description: With the H14S9 hES cell line, 12 day otic differentiation experiments were carried out in control DFNB, FGF, or FGF with 10 μM IWR-1-endo supplemented medium. Gene expression of the three germ layer lineages relative to the baseline DFNB condition were quantified by QPCR. Two gene markers for each germ layer were investigated; PAX6 and NEST/N (ectoderm), BRACHYURY and MEOX1 (mesoderm), and AFP and GATA6 (endoderm) (FIG. 2).
Following a lost-of function/gain-of function paradigm, an experiment was done to determine the effect of activating canonical Wnt signalling throughout the 12 days of otic differentiation. The small molecule compound BIO (6-bromoindirubin-3′-oxime, Tocris) is a potent inhibitor of GSK-3β kinase, a component of the β-catenin degradation complex. Inhibition of GSK-3β kinase activity disrupts the proteolytic breakdown of β-catenin and so Wnt activity is sustained (Meijer et al., 2003). BIO is well established in the literature and has been used to investigate survival and proliferation of hES cells and also lineage differentiation studies (Dravid et al., 2005) (Tseng et al., 2006). BIO was tested at a concentration of 2 μM (as recommended in the literature). […] In contrast to inhibiting canonical Wnt signalling throughout the 12 day protocol, activating canonical Wnt signalling throughout appears to downregulate gene expression of the otic and ectoderm markers, with upregulation of markers of mesoderm and endoderm.

H14S9 hES cell line [3] = experiment: Cell death in differentiating cultures; conditions: 20 μM IWR-1-endo in FGF medium
Description: The effect of the Wnt inhibitors was initially explored in the backdrop of a known differentiation protocol, which includes FGF 3 and FGF 10 supplementation from the outset. Experiments were carried out to determine the effect of canonical Wnt inhibition on the differentiation of otic progenitors in FGF medium (standard concentration of 50 ng/ml for each FGF 3 and FGF 10) and obtain an optimal working concentration. IWR-1-endo was present from day 0 of differentiation (day 0 refers to the initial seeding of the hES cells into differentiation conditions) and were maintained throughout the 12 day protocol. At the end of the differentiation protocol, RNA was extracted and PAX2, PAX8 and FOXG1 gene expression was quantified by real time PCR (QPCR) using SYBR Green (Sigma Aldrich). Delta Cts were calculated against the large ribosomal protein RPLPO housekeeping gene, and Delta Ct values were compared against the levels expressed by cells differentiated in the control DFNB medium (Livak and Schmittgen, 2001). FIG. 1 compares the dose responses of IWR-1-endo and the effect on the gene expression of PAX2, PAX8 and FOXG1 in the H14S9 hES cell line. Dimethyl sulfoxide (DMSO) was the vehicle for all small molecule compounds. A vehicle-only control was added to FGF medium to ascertain the effects of DMSO. […]

[4] = FGF medium with 10 μM IWR-1-endo, 12 days, compared to FGF condition
[5] = 2 μM BIO in FGF medium throughout 12 days, one experiment

Row | Structure (SMILES) | gene expression of PAX2, PAX8 and FOXG1 (H14S9 hES cell line [1]; 10 μM IWR-1-endo in FGF medium (50 ng/ml FGF 3 and FGF 10), day 0 to day 12, relative to DFNB) | gene expression of PAX2, PAX8 or FOXG1 (H14S9 hES cell line [1]; IWR-1-endo day 0 to day 4 or day 0 to day 6, then FGF medium only until day 12, compared to FGF medium alone) | gene expression of the otic markers (H14S9 hES cell line [1]; canonical Wnt inhibition with IWR-1-endo day 0 to 8 or day 0 to 12, compared to standard FGF medium) | ectodermal differentiation (PAX6, NESTIN gene expression) (H14S9 hES cell line [2]; [4]) | gene expression of mesoderm and endoderm markers (H14S9 hES cell line [2]; [4]) | AFP gene expression (H14S9 hES cell line [2]; FGF medium with IWR-1-endo, 12 days, compared to FGF condition) | cell death in the cultures (H14S9 hES cell line [3]) | gene expression of markers of mesoderm and endoderm (H14S9 hES cell line [2]; [5]) | gene expression of the otic and ectoderm markers (H14S9 hES cell line [2]; [5])
1 | O=C(Nc1cccc2cccnc12)c1ccc(N2C(=O)[C@@H]3[C@H](C2=O)[C@@H]2C=C[C@H]3C2)cc1 [IWR-1-endo] | more robust and reproducible upregulation | did not significantly alter | Significant upregulation | enhanced further over the FGF condition | significantly reduced compared to the FGF condition | significant downregulation | very high levels of cell death |  | 
2 | O=C1Nc2cc(Br)ccc2/C1=C1/Nc2ccccc2/C1=N\O [BIO, 6-bromoindirubin-3′-oxime] |  |  |  |  |  |  |  | upregulation | downregulate
